#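 1) Cells in 96-well plates. 2) Compound, 48 h, 5 concentrations. 3) Linear interpolation between surrounding doses. 4) Unreached endpoint = highest concentration. GI50 is the concentration that inhibits growth by half. TGI: total growth inhibition.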
# Tests used:
# Assay in all cases: NCI tumour cell line growth inhibition, 48 h
# [1] = system: HS 578T breast
# [2] = system: RXF-631 renal
# [3] = system: SNB-78 CNS
# [4] = system: HOP-18 NSCLC
# [5] = system: XF 498 CNS
# [6] = system: MDA-N
# [7] = system: P388 leukemia
# [8] = system: P388/ADR leukemia
# [9] = system: SN12K1 renal
SMILES,GI50 [1] [µM],TGI [1] [µM],TGI [3] [µM],TGI [4] [µM],TGI [5] [µM],also measured
CN1c2ccccc2C(C)(C)C12C=Cc1cc(O)ccc1O2 (stereo not drawn),1.97,5.17,–,–,–,–
N#CSCC1CC(O)(c2ccccc2)CC(c2ccc(F)cc2)O1 (stereo not drawn),1.96,4.6,–,–,–,–
COCCCNC(=O)CC(=O)NCCCOC,–,–,> 100,> 100,–,TGI [2]: > 100 µM
O=C(NCc1ccc(Cn2c(=O)sn(-c3ccccc3)c2=O)cc1)OCc1ccc2c(Br)cc(Br)c(O)c2n1,1.62,4.9,–,–,–,–
COc1ccc(Nc2c3ccccc3nc3ccccc23)cc1,5.26,27.5,–,–,–,–
Nc1nc(-c2ccccc2)nc(N)c1N=O,8.14,> 100,–,–,–,–
O=C(NP(=O)(N1CC1)N1CC1)c1cc(I)ccc1I,–,> 100,> 100,> 100,> 100,TGI [6]: > 100 µM
O=C(Cc1nc2ccccc2s1)Nc1cccc(C(F)(F)F)c1,–,–,–,33.5,28.4,TGI [2]: 26.8 µM
COC(=O)CCC(=O)CC(=O)C(=O)Nc1c(Cl)cc([N+](=O)[O-])cc1Cl,–,–,> 100,> 100,> 100,TGI [2]: > 100 µM
c1cc(CNCCN2CCNCC2)ccn1,–,> 100,–,–,–,TGI [6]: > 100 µM
O=C(Nc1ccccc1)NS(=O)(=O)c1ccc(-n2nc3c(c2-c2ccc(Cl)cc2)Cc2ccccc2-3)cc1,19.6,82.3,–,–,–,–
CCCCCCCCCCCC1CCCC(C)N1 (stereo not drawn),8.6,26.2,174,169,95.3,TGI [7]: 23.9 µM; TGI [8]: 54.7 µM; TGI [9]: 86.4 µM
CN1CCN(c2ccc3nc(-c4ccc5nc(-c6ccc(OCCC(C)(C)C)cc6)[nH]c5c4)[nH]c3c2)CC1,10.5,37.1,–,–,–,–
CS(=O)(=O)N(N(CCCl)S(=O)(=O)c1ccccc1)S(C)(=O)=O,–,–,–,> 100,> 100,TGI [2]: > 100 µM
CN(C)CCNC(=O)c1cccc2c1nc(-c1ccccc1)c1ccccc12,–,–,26.4,27.9,–,TGI [2]: 3.06 µM
C=C1CC/C=C(\C)C(=O)C[C@@H]2[C@@H]1CC2(C)C,–,–,–,–,–,TGI [6]: 3.16 µM
COc1cc2c(cc1Nc1nc(Nc3ccsc3C(N)=O)c3cc[nH]c3n1)N(C(=O)CN(C)C)CCC2(C)C,1.11,5.13,–,–,–,–
O=CC[C@H]1CCc2ccccc2C12CCC(=O)CC2,–,–,–,–,> 100,TGI [2]: > 100 µM
COc1cc2c3c(c1OC)-c1c(ccc4c1OCO4)CC3(C#N)N(C(=O)c1ccccc1)CC2 (stereo not drawn),–,–,> 100,–,60.2,TGI [2]: > 100 µM

SMILES,GI50 [1] [µM],TGI [1] [µM],TGI [3] [µM],TGI [4] [µM],TGI [5] [µM],also measured
CC1(C)Cc2cc(C(=O)O)c3c(c2C1=O)COCC3,–,–,> 100,> 100,> 100,–
O=C(Nc1nc2ncn(CCNCc3ccccc3)c2c(=O)[nH]1)c1ccccc1,–,–,> 100,> 100,–,TGI [2]: > 100 µM
COc1cc(OC)c(/C=C/c2cnc3ccccc3n2)c(OC)c1,–,> 10,–,–,–,TGI [6]: > 10 µM
CCOC(=O)C1=C(C)N(c2ccc(C)cc2)C2=C(C(=O)N(c3ccccc3)C2c2ccccc2)C1c1ccccc1 (stereo not drawn),–,–,–,–,> 25,TGI [2]: > 25 µM
CCN(C(=O)c1cc(F)ccc1Oc1cncnc1N1CC2(CCN(CC3CCC(NS(=O)(=O)CC)CC3)CC2)C1)C(C)C (stereo not drawn),> 100,> 100,–,–,–,–
NC(=O)c1cc(-c2ccc(F)cc2)cc(-c2ccncc2)c1N,5.66,> 23.4,–,–,–,–
O=C(O)/C(=C/C=C/c1ccccc1)c1csc(-c2nc(/C(=C\C=C\c3ccccc3)C(=O)O)cs2)n1,–,–,79.8,–,–,–
COc1ccc(/C(C#N)=C/c2ccc(OC)c(OC)c2)cc1,–,> 100,–,–,–,TGI [6]: > 100 µM
CN(CC(=O)N(Cc1ccc(C2CCCCC2)cc1)c1ccc(C(=O)O)c(O)c1)S(=O)(=O)c1c(F)c(F)c(F)c(F)c1F,6.92,35.1,–,–,–,–
CCCCCCCCCc1cccc(N2C(N)=NC(N)=NC2(C)C)c1,–,6.48,–,–,–,–
CC(C)(C)c1cc2c3c(c1)C(C(F)(F)F)(C(F)(F)F)O[Te]3(C)OC2(C(F)(F)F)C(F)(F)F,–,–,> 100,> 100,> 100,–
COc1ccc(Cn2cc3c(c2-c2ccc(OC)cc2)CCc2cnoc2-3)cc1,0.301,1.14,–,–,–,–
CCCCS(=O)(=O)CCC(N)C(=O)O (stereo not drawn),–,> 100,–,–,–,TGI [6]: > 100 µM
COc1cc2c(cc1C)NC(=O)/C2=C\c1cccc(Oc2ccccc2)c1,39.1,89.8,–,–,–,–
CC(=O)c1ccc(NC(=O)C(=O)Nn2c(=S)[nH]c3ccccc3c2=O)cc1,–,–,> 100,> 100,> 100,–
O=[N+]([O-])c1cccc(C2ON2C2CCCCC2)c1 (stereo not drawn),–,–,> 100,> 100,–,–
CCOC(=O)C(=Cc1ccc(Oc2ccccc2)cc1)C(=O)OCC,–,–,–,26.8,11.3,TGI [2]: 12.1 µM; TGI [6]: 18.6 µM
CC[C@@H](C(=O)[C@@H](C)[C@@H](O)[C@H](C)[C@@H]1O[C@@H]([C@@H](CC)C(=O)N(CC)CC)CC[C@@H]1C)C1O[C@]2(C=CC(=O)[C@]3(CC[C@@](C)([C@H]4CC[C@](O)(CC)[C@H](C)O4)O3)O2)[C@H](C)C[C@@H]1C (stereo partly drawn),2.68,16.1,–,–,–,–

# Source: PubChem BioAssay (NCI)
